Test results taken from ChEMBL document CHEMBL5321256, “Tolypocaibols: Antibacterial Lipopeptaibols from a Tolypocladium sp. Endophyte of the Marine Macroalga Spongomorpha arcta” (2023).
≈ marks a conversion by molar mass, not a printed value. Square brackets hold non-standard residues; d marks the D form. Peptide text beside a SMILES is read from it. * marks the point of attachment. Pro(4S-Me) = C[C@@H]1CN[C@H](C(=O)O)C1; Decanoyl = CCCCCCCCCC(=O)*; Valol = CC(C)[C@@H](CO)N*; Aib = CC(C)(N)C(=O)O

What was measured:
Assay type in all cases: functional
[1] = tested on: Staphylococcus aureus; assay: Antibacterial activity against methicillin-resistant Staphylococcus aureus measured after 18 to 20 hrs by broth microdilution method; conditions: time 18-20 hrs
[2] = tested on: Providencia alcalifaciens; assay: Antibacterial activity against Providencia alcalifaciens measured after 18 to 20 hrs by broth microdilution method; conditions: time 18-20 hrs
[3] = tested on: Enterococcus faecalis; assay: Antibacterial activity against Enterococcus faecalis measured after 18 to 20 hrs by broth microdilution method; conditions: time 18-20 hrs
[4] = tested on: Staphylococcus aureus; assay: Antibacterial activity against methicillin-susceptible Staphylococcus aureus measured after 18 to 20 hrs by broth microdilution method; conditions: time 18-20 hrs
[5] = tested on: Staphylococcus epidermidis; assay: Antibacterial activity against Staphylococcus epidermidis measured after 18 to 20 hrs by broth microdilution method; conditions: time 18-20 hrs
[6] = tested on: Mycolicibacterium smegmatis; assay: Antibacterial activity against Mycobacterium smegmatis ATCC 70084 by resazurin microplate assay
[7] = tested on: Bacillus subtilis; assay: Antibacterial activity against Bacillus subtilis measured after 18 to 20 hrs by broth microdilution method; conditions: time 18-20 hrs
[8] = tested on: Klebsiella aerogenes; assay: Antibacterial activity against Klebsiella aerogenes measured after 18 to 20 hrs by broth microdilution method; conditions: time 18-20 hrs
[9] = tested on: Klebsiella pneumoniae; assay: Antibacterial activity against Klebsiella pneumoniae measured after 18 to 20 hrs by broth microdilution method; conditions: time 18-20 hrs
[10] = tested on: Shigella sonnei; assay: Antibacterial activity against Shigella sonnei measured after 18 to 20 hrs by broth microdilution method; conditions: time 18-20 hrs
[11] = tested on: Enterococcus faecium; assay: Antibacterial activity against Enterococcus faecium measured after 18 to 20 hrs by broth microdilution method; conditions: time 18-20 hrs
[12] = tested on: Brucella anthropi; assay: Antibacterial activity against Ochrobactrum anthropi measured after 18 to 20 hrs by broth microdilution method; conditions: time 18-20 hrs
[13] = tested on: Pseudomonas aeruginosa; assay: Antibacterial activity against Pseudomonas aeruginosa measured after 18 to 20 hrs by broth microdilution method; conditions: time 18-20 hrs
[14] = tested on: Salmonella enterica; assay: Antibacterial activity against Salmonella enterica measured after 18 to 20 hrs by broth microdilution method; conditions: time 18-20 hrs
[15] = tested on: Vibrio cholerae; assay: Antibacterial activity against Vibrio cholerae measured after 18 to 20 hrs by broth microdilution method; conditions: time 18-20 hrs
[16] = tested on: Yersinia pseudotuberculosis; assay: Antibacterial activity against Yersinia pseudotuberculosis measured after 18 to 20 hrs by broth microdilution method; conditions: time 18-20 hrs
[17] = tested on: Escherichia coli; assay: Antibacterial activity against Escherichia coli measured after 18 to 20 hrs by broth microdilution method; conditions: time 18-20 hrs
[18] = tested on: Listeria ivanovii; assay: Antibacterial activity against Listeria ivanovii ATCC BAA-139 measured after 18 to 20 hrs by broth microdilution method; conditions: time 18-20 hrs
[19] = tested on: Mycobacterium tuberculosis; assay: Antibacterial activity against Mycobacterium tuberculosis ATCC 25177 by resazurin microplate assay

Row | Compound | MIC [1] | MIC [2] | MIC [3] | MIC [4] | MIC [5] | MIC [6] | MIC [7] | MIC [8] | MIC [9] | MIC [10] | MIC [11] | MIC [12] | MIC [13] | MIC [14] | MIC [15] | MIC [16] | MIC [17] | MIC [18] | MIC [19]
1 | C=C[C@@H]1C[C@H](C)C[C@H](C)[C@H]1c1c(O)ccn(O[C@@H]2C(C(=O)OC)=C[C@@H](O)[C@@H](O)[C@H]2O)c1=O | 128 µM (≈ 57.5 µg/mL) | 128 µM (≈ 57.5 µg/mL) | 128 µM (≈ 57.5 µg/mL) | 128 µM (≈ 57.5 µg/mL) | 128 µM (≈ 57.5 µg/mL) | > 250 µM | 128 µM (≈ 57.5 µg/mL) | > 128 µM | > 128 µM | 128 µM (≈ 57.5 µg/mL) | 128 µM (≈ 57.5 µg/mL) | 128 µM (≈ 57.5 µg/mL) | > 128 µM | 128 µM (≈ 57.5 µg/mL) | 128 µM (≈ 57.5 µg/mL) | 128 µM (≈ 57.5 µg/mL) | 128 µM (≈ 57.5 µg/mL) | 16 µM (≈ 7.19 µg/mL) | 250 µM (≈ 112 µg/mL)
2 | CCCCCCCCCC(=O)NC(C)(C)C(=O)N1CCC[C@H]1C(=O)N[C@@H](Cc1ccccc1)C(=O)NC(C)(C)C(=O)N[C@@H](CCC(N)=O)C(=O)N[C@@H](CCC(N)=O)C(=O)NC(C)(C)C(=O)NC(C)(C)C(=O)N[C@@H](CCC(N)=O)C(=O)N[C@@H](CC(C)C)C(=O)N[C@H](CO)C(C)C (Decanoyl-[Aib]PF[Aib]QQ[Aib][Aib]QL-Valol) | 16 µM (≈ 21.4 µg/mL) | > 128 µM | 32 µM (≈ 42.9 µg/mL) | 8 µM (≈ 10.7 µg/mL) | > 128 µM | 80 µM (≈ 107 µg/mL) | 8 µM (≈ 10.7 µg/mL) | > 128 µM | > 128 µM | > 128 µM | 32 µM (≈ 42.9 µg/mL) | > 128 µM | > 128 µM | > 128 µM | > 128 µM | > 128 µM | > 128 µM | 8 µM (≈ 10.7 µg/mL) | 20 µM (≈ 26.8 µg/mL)
3 | CCCCCCCCCC(=O)NC(C)(C)C(=O)N1C[C@@H](C)C[C@H]1C(=O)N[C@@H](Cc1ccccc1)C(=O)NC(C)(C)C(=O)N[C@@H](CCC(N)=O)C(=O)N[C@@H](CCC(N)=O)C(=O)NC(C)(C)C(=O)NC(C)(C)C(=O)N[C@@H](CCC(N)=O)C(=O)N[C@@H](CC(C)C)C(=O)N[C@H](CO)C(C)C (Decanoyl-[Aib][Pro(4S-Me)]F[Aib]QQ[Aib][Aib]QL-Valol) | 16 µM (≈ 21.7 µg/mL) | > 128 µM | 16 µM (≈ 21.7 µg/mL) | 4 µM (≈ 5.41 µg/mL) | > 128 µM | 80 µM (≈ 108 µg/mL) | 4 µM (≈ 5.41 µg/mL) | > 128 µM | > 128 µM | > 128 µM | 16 µM (≈ 21.7 µg/mL) | > 128 µM | > 128 µM | > 128 µM | > 128 µM | > 128 µM | > 128 µM | 8 µM (≈ 10.8 µg/mL) | 40 µM (≈ 54.1 µg/mL)
4 | O=C(O)c1cn(C2CC2)c2cc(N3CCNCC3)c(F)cc2c1=O [CIPROFLOXACIN] | 64 µM (≈ 21.2 µg/mL) | 0.13 µM (≈ 0.0431 µg/mL) | 1 µM (≈ 0.331 µg/mL) |  | 1.33 µM (≈ 0.441 µg/mL) | 3.8 µM (≈ 1.26 µg/mL) | 0.38 µM (≈ 0.126 µg/mL) | 2.83 µM (≈ 0.938 µg/mL) | 2 µM (≈ 0.663 µg/mL) | 0.08 µM (≈ 0.0265 µg/mL) | 0.67 µM (≈ 0.222 µg/mL) | 0.83 µM (≈ 0.275 µg/mL) | 0.5 µM (≈ 0.166 µg/mL) | 0.05 µM (≈ 0.0166 µg/mL) | 0.02 µM (≈ 0.00663 µg/mL) | 0.14 µM (≈ 0.0464 µg/mL) | 0.17 µM (≈ 0.0563 µg/mL) | 8 µM (≈ 2.65 µg/mL) | 
5 | CO[C@H]1/C=C/O[C@@]2(C)Oc3c(C)c(O)c4c(O)c(c(/C=N/N5CCN(C)CC5)c(O)c4c3C2=O)NC(=O)/C(C)=C\C=C\[C@H](C)[C@H](O)[C@@H](C)[C@@H](O)[C@@H](C)[C@H](OC(C)=O)[C@@H]1C [RIFAMPIN] | 2 µM (≈ 1.65 µg/mL) | 8 µM (≈ 6.58 µg/mL) | 1 µM (≈ 0.823 µg/mL) | 0.01 µM (≈ 0.00823 µg/mL) | 0.02 µM (≈ 0.0165 µg/mL) |  | 0.19 µM (≈ 0.156 µg/mL) | 8 µM (≈ 6.58 µg/mL) | 16 µM (≈ 13.2 µg/mL) | 1.67 µM (≈ 1.37 µg/mL) | 21.3 µM (≈ 17.5 µg/mL) | 4 µM (≈ 3.29 µg/mL) | 53.3 µM (≈ 43.9 µg/mL) | 2 µM (≈ 1.65 µg/mL) | > 128 µM | 10.7 µM (≈ 8.81 µg/mL) | 4 µM (≈ 3.29 µg/mL) | 0.02 µM (≈ 0.0165 µg/mL) | 0.062 µM (≈ 0.051 µg/mL)
